Source: ChEMBL document CHEMBL4840369, “Structure-based screening combined with computational and biochemical analyses identified the inhibitor targeting the binding of DNA Ligase 1 to UHRF1” (Bioorg Med Chem, 2021)
pKd: −log10 of the molar value. The source made the active and inactive calls. The calls are words filed in the database; no cut-off is given here.

Key:
[1] = target: T1, E3 ubiquitin-protein ligase UHRF1 (Homo sapiens) (UniProt Q96T88); assay: Displacement of FAM-labeled H3K9me3 from UHRF1 TTD(unknown origin) by fluorescence polarization assay
T1 sequence (whole entry): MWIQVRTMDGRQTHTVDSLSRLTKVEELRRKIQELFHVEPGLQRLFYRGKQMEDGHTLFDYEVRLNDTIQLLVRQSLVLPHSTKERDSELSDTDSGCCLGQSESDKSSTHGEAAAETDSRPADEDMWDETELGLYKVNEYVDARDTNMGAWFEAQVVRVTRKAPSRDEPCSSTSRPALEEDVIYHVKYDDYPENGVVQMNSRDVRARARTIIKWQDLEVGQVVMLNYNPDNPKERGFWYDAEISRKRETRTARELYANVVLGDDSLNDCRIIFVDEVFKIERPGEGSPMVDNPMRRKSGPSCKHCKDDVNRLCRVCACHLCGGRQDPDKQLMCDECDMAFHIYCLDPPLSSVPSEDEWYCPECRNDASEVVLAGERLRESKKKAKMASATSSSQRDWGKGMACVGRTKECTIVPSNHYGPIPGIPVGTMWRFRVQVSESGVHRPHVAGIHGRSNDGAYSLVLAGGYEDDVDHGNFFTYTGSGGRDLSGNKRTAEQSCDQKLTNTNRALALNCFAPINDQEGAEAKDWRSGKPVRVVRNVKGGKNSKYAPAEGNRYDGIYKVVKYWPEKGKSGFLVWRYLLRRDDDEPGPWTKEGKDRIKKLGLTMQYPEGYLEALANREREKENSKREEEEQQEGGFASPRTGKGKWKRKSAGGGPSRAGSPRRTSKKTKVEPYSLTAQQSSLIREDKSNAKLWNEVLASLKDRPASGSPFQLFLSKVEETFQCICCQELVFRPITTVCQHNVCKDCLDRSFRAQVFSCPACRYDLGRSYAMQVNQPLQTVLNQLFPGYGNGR

[2] = target: E3 ubiquitin-protein ligase UHRF1 (Homo sapiens, UniProt Q96T88); assay: Binding affinity to UHRF1 TTD variant loop (unknown origin) assessed as dissociation constant by ITC analysis
[3] = target: T1, E3 ubiquitin-protein ligase UHRF1 (Homo sapiens); assay: Binding affinity to UHRF1 TTD (unknown origin) assessed as increase in thermal stability by measuring change in melting temperature by SYPRO orange dye based fluorescence assay
[4] = target: E3 ubiquitin-protein ligase UHRF1 (Homo sapiens, UniProt Q96T88, F278A); assay: Binding affinity to UHRF1 F278A mutant (unknown origin) assessed as dissociation constant by ITC analysis
[5] = target: T1, E3 ubiquitin-protein ligase UHRF1 (Homo sapiens); assay: Displacement of FAM-labeled LIG1K126me3 from UHRF1 TTD(unknown origin) by fluorescence polarization assay
[6] = target: E3 ubiquitin-protein ligase UHRF1 (Homo sapiens, UniProt Q96T88, M224A); assay: Binding affinity to UHRF1 M224A mutant (unknown origin) assessed as dissociation constant by ITC analysis
[7] = target: T2, E3 ubiquitin-protein ligase UHRF1 (Xenopus laevis) (UniProt B6CHA3); assay: Inhibition of UHRF1 TTD binding with LIG1K126me3 in Xenopus laevis eggs incubated for 1 hr by immunoprecipitation; type: tissue-based; conditions: Egg
T2 sequence (whole entry): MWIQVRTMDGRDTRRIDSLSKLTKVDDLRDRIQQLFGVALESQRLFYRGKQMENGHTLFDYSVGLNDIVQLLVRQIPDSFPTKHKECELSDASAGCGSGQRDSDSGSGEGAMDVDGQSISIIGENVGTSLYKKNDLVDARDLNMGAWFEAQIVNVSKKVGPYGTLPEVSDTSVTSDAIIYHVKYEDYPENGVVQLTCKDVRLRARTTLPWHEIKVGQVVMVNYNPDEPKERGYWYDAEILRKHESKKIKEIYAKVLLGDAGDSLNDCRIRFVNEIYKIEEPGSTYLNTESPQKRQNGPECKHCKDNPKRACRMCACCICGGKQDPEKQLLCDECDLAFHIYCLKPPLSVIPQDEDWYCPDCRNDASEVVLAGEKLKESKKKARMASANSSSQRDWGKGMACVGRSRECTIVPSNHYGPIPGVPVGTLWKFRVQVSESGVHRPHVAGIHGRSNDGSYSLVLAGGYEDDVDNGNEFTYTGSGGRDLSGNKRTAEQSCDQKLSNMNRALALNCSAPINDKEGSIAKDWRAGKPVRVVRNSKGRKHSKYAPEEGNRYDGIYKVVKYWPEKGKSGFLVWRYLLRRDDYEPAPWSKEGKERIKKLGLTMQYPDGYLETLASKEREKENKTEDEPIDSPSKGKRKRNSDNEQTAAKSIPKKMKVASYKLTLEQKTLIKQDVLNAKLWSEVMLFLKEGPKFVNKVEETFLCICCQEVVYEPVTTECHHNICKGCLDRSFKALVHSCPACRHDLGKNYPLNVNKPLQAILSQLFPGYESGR

[8] = target: T1, E3 ubiquitin-protein ligase UHRF1 (Homo sapiens); assay: Binding affinity to UHRF1 TTD (unknown origin) assessed as change in enthalpy by ITC analysis
[9] = target: T3, E3 ubiquitin-protein ligase UHRF1 (Homo sapiens, UniProt Q96T88); assay: Binding affinity to UHRF1 TTD (unknown origin) assessed as dissociation constant by ITC analysis
T3 sequence (Q96T88 whole entry): T1 sequence (whole entry)

[10] = target: E3 ubiquitin-protein ligase UHRF1 (Homo sapiens, UniProt Q96T88, Y188A/Y191A); assay: Binding affinity to UHRF1 Y188A/Y191A double mutant (unknown origin) assessed as dissociation constant by ITC analysis
[11] = target: T1, E3 ubiquitin-protein ligase UHRF1 (Homo sapiens); assay: Binding affinity to UHRF1 TTD (unknown origin) assessed as compound-protein complex stoichiometry ratio of 1:1 by ITC analysis
[12] = target: T1, E3 ubiquitin-protein ligase UHRF1 (Homo sapiens); assay: Binding affinity to UHRF1 TTD (unknown origin) assessed as increase in thermal stability by melting temperature by SYPRO orange dye based fluorescence assay (reference value: 46.5 +/- 0.1 degreeC)

E3 ubiquitin-protein ligase UHRF1 (Homo sapiens, UniProt Q96T88, Y188A/Y191A), sequence (Q96T88 whole entry Y188A/Y191A): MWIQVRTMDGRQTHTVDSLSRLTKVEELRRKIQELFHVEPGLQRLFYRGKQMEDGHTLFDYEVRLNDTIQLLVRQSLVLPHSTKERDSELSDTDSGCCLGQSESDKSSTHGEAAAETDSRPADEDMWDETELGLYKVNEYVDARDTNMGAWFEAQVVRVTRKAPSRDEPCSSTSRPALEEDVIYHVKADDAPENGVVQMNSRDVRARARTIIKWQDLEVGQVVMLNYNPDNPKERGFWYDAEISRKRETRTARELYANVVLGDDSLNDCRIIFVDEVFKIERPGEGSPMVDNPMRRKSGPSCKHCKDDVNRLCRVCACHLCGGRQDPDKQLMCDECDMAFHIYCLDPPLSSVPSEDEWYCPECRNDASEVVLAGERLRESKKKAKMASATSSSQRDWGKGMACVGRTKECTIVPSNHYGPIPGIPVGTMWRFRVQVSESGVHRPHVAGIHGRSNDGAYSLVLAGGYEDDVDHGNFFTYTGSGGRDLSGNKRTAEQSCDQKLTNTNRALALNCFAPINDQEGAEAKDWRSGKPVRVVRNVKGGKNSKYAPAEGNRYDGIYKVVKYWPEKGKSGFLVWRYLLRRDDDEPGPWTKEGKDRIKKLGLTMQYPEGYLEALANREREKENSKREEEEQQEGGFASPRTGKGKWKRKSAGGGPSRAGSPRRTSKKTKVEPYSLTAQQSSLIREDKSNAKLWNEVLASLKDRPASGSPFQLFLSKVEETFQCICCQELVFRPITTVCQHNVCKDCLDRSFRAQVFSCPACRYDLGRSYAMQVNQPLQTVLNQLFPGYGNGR
E3 ubiquitin-protein ligase UHRF1 (Homo sapiens, UniProt Q96T88, F278A), sequence (Q96T88 whole entry F278A): as the sequence (Q96T88 whole entry Y188A/Y191A) above, with A188Y, A191Y, F278A counted along it
E3 ubiquitin-protein ligase UHRF1 (Homo sapiens, UniProt Q96T88, M224A), sequence (Q96T88 whole entry M224A): as the sequence (Q96T88 whole entry Y188A/Y191A) above, with A188Y, A191Y, M224A counted along it

Which results are given for `Cc1cc(C)c(N)cn1`?
INH [1]: 249 µM; pKd [2]: 4.68; deltaT [3]: 3.1 °C; pKd [4]: < 3.74; INH [5]: 806 µM; pKd [6]: < 3.95; inhibition [7]: Dose-Dependent Effect; deltaH [8]: -8.5 kcal/mol; pKd [9]: 4.71; pKd [10]: 4.49; Activity [11]: Active; Tm [12]: 49.6 °C
